Test results as given in publication PMC7481439 (Frontiers in Pediatrics, 2020).
Marks after values point to notes of the source that are not given here.

Columns and labels:
[1] = adult centrifugal-based circuit, volume 800 ml, n = 3, ref Lemaitre ([39]); cited from earlier work
[2] = In vitro closed-loop ECMO circuit model: drug recovery / sequestration
[3] = Table 2; Drug Bank online database; cited from earlier work
[4] = Spontaneous drug degradation (T2 control sample analysed at 24 h); settings: whole blood control sample drawn at 2 min, kept in EDTA tube at the temperature of the circuits until 24 h; difference in drug recovery between T2 and T2-24; average
[5] = volume of distribution, listed under physico-chemical data; source not stated for Vd; cited from earlier work
[6] = neonatal centrifugal-based circuit, volume 200 ml, recovery at 180 min, n = 2; ref Wildschut ([18]); cited from earlier work
[7] = adult centrifugal-based circuit, volume 670 ml, n = 4, ref Shekar ([22]); cited from earlier work
[8] = parameters: method as in PMID 18048412; settings: Drug Bank online database; cited from earlier work

SMILES | Mean drug recovery at 24 h, Quadrox a (Lemaitre) [1] [%] | Decrease of drug level after 24 h, ILA active ([2]; ILA active circuit, whole blood primed, 24-h exposure) [%] | Mean drug recovery after 24 h of circulation, r-ML ([2]; MiniLung (infant) circuit, whole blood primed, 700 ml/min, 24 h, dose VOR 40 mg, VAN 54 mg, expected level VOR 117.1, VAN 177.1 mg/L, corrected for spontaneous degradation, plasma, LC-MS/MS (VOR) or immune-assay (VAN), mean (±SD), n = 2 circuits, SD) | Mean drug recovery after 24 h of circulation, r-MLP ([2]; MiniLung petite (neonatal) circuit, whole blood primed, 500 ml/min, 24 h, dose VOR 35 mg, VAN 45 mg, expected level VOR 140, VAN 180 mg/L, corrected for spontaneous degradation, plasma, LC-MS/MS (VOR) or immune-assay (VAN), mean (±SD), n = 3 circuits, SD) | Decrease of drug level after 24 h, XLung ([2]; XLung circuit, whole blood primed, 24-h exposure) [%] | Mean drug recovery after 24 h of circulation, r-XL ([2]; Xlung (adult) circuit, whole blood primed, […], 24 h, dose VOR 68 mg, VAN 91.8 mg, expected level VOR 143.2, VAN 193.7 mg/L, corrected for spontaneous degradation, plasma, LC-MS/MS (VOR) or immune-assay (VAN), mean (±SD), n = 2 circuits, SD) | Mean drug recovery at 24 h, ML ([2]; current experiment, MiniLung circuit, whole blood primed, volume 310 ml, 24 h, n = 2) [%] | Mean drug recovery at 24 h, MLP ([2]; current experiment, MiniLung petite circuit, whole blood primed, volume 250 ml, 24 h, n = 3) [%] | Mean drug recovery at 24 h, Xlung ([2]; current experiment, Xlung circuit, whole blood primed, volume 480 ml, 24 h, n = 2) [%] | Mean drug recovery at 24 h, iLA ([2]; current experiment, iLAActivve circuit, whole blood primed, volume 400 ml, 24 h, n = 2) [%] | Mean drug recovery after 24 h of circulation, r-iLA ([2]; iLAActivve iLA (pediatric) circuit, whole blood primed, […], 24 h, dose VOR 52.5 mg, VAN 67.5 mg, expected level VOR 134.7, VAN 173.2 mg/L, corrected for spontaneous degradation, plasma, LC-MS/MS (VOR) or immune-assay (VAN), mean (±SD), n = 2 circuits) | Mean percentage of drug recovery at 24 h ([2]; mean over all nine whole-blood primed circuits (MLP, ML, iLA, XLung), single bolus, pre-membrane (P2) plasma samples, 24 h, corrected for average spontaneous degradation, LC-MS/MS (voriconazole), immune-assay Architect (vancomycin), samples in triplicate) [%] | Decrease of drug level after 24 h, minilung ([2]; minilung circuit, whole blood primed, 24-h exposure) [%] | PB % [3] [%] | Spontaneous degradation [4] [%] | Vd [5] [L/kg] | Mean drug recovery, Medos n [6] | Mean drug recovery at 24 h, Quadrox a (Shekar) [7] [%] | LogP [8]
CN[C@H](CC(C)C)C(=O)N[C@H]1C(=O)N[C@@H](CC(N)=O)C(=O)N[C@H]2C(=O)N[C@H]3C(=O)N[C@H](C(=O)N[C@H](C(=O)O)c4cc(O)cc(O)c4-c4cc3ccc4O)[C@H](O)c3ccc(c(Cl)c3)Oc3cc2cc(c3O[C@@H]2O[C@H](CO)[C@@H](O)[C@H](O)[C@H]2O[C@H]2C[C@](C)(N)[C@H](O)[C@H](C)O2)Oc2ccc(cc2Cl)[C@H]1O [vancomycin] | 100 | 38 | 133.2 (±49.7) mg/L | 112 (±31.6) mg/L | 50 | 96.5 (±13.5) mg/L | 73 | 60 | 48 | 60 | 108.5 (±4,4) mg/L | 62 | 25 | 50 | 2.4 | 0.4 to 1 | 67.1^* % | 90 | 
C[C@@H](c1ncncc1F)[C@](O)(Cn1cncn1)c1ccc(F)cc1F [voriconazole] |  |  |  |  |  |  |  |  |  |  |  |  |  | 58 |  | 4.6 |  |  | 1.8
